One assay has as its system PS961. In words: Dynamic single-molecule sequencing, recognition by PS961. The format is binding, Planctomycetes. As to conditions: for RS mean PD, recognition of N-terminal leucine: tyrosine or phosphotyrosine at position 2. The protocol:
(§1) The semiconductor chip was placed in the sequencing device and a chip check was performed to test electronic circuit function and to optimize laser coupling alignment. The chip was then removed from the device socket and the chip was washed twice with 50 μL of 70% isopropanol, followed by four washes with 30 μL of wash buffer (50 mM MOPS pH 8.0, 60 mM potassium acetate, 50 mM glucose, 20 mM magnesium acetate, and surfactant mix) through a flow cell attached to the chip. A second chip check was then performed. The laser was then blocked via an integrated software-controlled shutter, peptide complex was added to a final concentration of 1-10 nM and mixed thoroughly, and the chip was incubated for 15 min. The chip was then washed six times with wash buffer, followed by addition of an imaging solution (wash buffer with 5 mM Trolox and an oxygen scavenging system). The laser was unblocked and the occupancy percentage (target 10-30%, Poisson distributed) was recorded by acquiring a photobleaching signal from a fluorophore attached to the peptide complex during 5 min of laser illumination. For NAA recognition-only assays, after peptide loading, labeled recognizer was added to a final concentration of 50 nM PS610, 100 nM PS691, or 250 nM PS961 (as indicated according to the experiment), and data was recorded for 10 hours. For dynamic sequencing assays, after peptide loading, a mixture of labeled recognizers was added to obtain final concentrations of 50 nM PS610, 100 nM PS691, and 250 nM PS961. Data was recorded for 15 min. The laser was then blocked briefly and aminopeptidases were added to the sequencing reaction via the flow cell and mixed thoroughly (final concentration 2-8 μM PhTET2 and/or 20-80 μM PhTET3, as indicated according to the experiment). The laser was then unblocked, and data was recorded for 10 hours. For all runs, 30 μL of mineral oil was added to fluid reservoirs at each port of the flow cell to prevent evaporation during the run.
(§2) The measured signal on-chip comprises various noise components, the most dominant one being due to fluorescent emissions from diffusing recognizers in the reaction chamber. The pulse caller algorithm for a given reaction chamber starts by estimating the statistical properties of this background noise component. Once an estimate within certain error bounds has been established, the algorithm works in an online fashion observing new frames of data as they are generated. At each point in time, the algorithm maintains state indicating whether the signal is due to the background component only or a pulse from a recognizer-NAA interaction is being observed. The state transition from background to pulse is triggered using an edge detection test where the shift in signal is expected to be significant with respect to the background component's statistical distribution. The state transition from pulse to background is triggered when a small window of the most recent frames of the signal appears to conform to the background component's distribution again. The algorithm maintains an updated model of the background component as new background frames are observed. This provides robustness against drift in the signal intensity together with a feedback control loop that maintains a stable optical coupling of the laser into the chip based on any such detected drift. As detected pulses can be due to true recognizer-to-dipeptide interaction events as well as other occasional transient noise spikes, a downstream filter layer is employed to test the significance of pulse events based on their duration, intensity, and noise patterns within the context of the full timeline of the run and the entire dataset of reaction chambers.
Initial regions are determined by performing a sliding window calculation of pulse rate along the time dimension of a series of pulses. Regions with a mean pulse rate >1 pulse/min are then subdivided according to a greedy bisection approach.

A further assay concerns the target T1, PS621 (Kluyveromyces lactis, UniProt O60014, E174T/N105S/N176F/R116K/S153T/V146T).
T1 construct: PS621; […]
Kind of assay: Dynamic single-molecule sequencing, recognition by PS621. The format is binding. As to conditions: unmodified arginine peptide, average of 10 sequencing reactions. From the text: PTM detection involved isolating peptides and subjecting them to a real-time single-molecule protein sequencing reaction. Proteins were first digested into peptide fragments and conjugated C-terminally to macromolecular linkers. The peptide complexes were immobilized at the bottom of nanoscale wells on a semiconductor chip, resulting in single peptide molecules with exposed N-termini ready for sequencing. During the sequencing reaction, the surface-immobilized peptides were exposed to a solution containing dye-labeled NAA recognizers that bound on and off to their cognate NAAs with characteristic kinetic properties. Aminopeptidases in solution sequentially removed individual NAAs to expose subsequent amino acids for recognition. Fluorescence lifetime, intensity, and kinetic data were collected in real time and analyzed to determine amino acid sequence and PTM content.
The trace-level output included distinct pulsing regions called recognition segments (RSs); each RS corresponded to a period of time between aminopeptidase cleavage events during which an NAA recognizer bound on and off to its exposed target NAA. Chemical modifications to a target NAA or to a nearby downstream amino acid can modulate recognizer affinity, resulting in a characteristic change in the average pulse duration (PD) during an RS relative to an unmodified peptide. These modifications can also influence the rate of aminopeptidase cleavage of an NAA, resulting in a characteristic change in average duration of the corresponding RS.
Synthetic peptides corresponding to residues 69 to 76 of P38MAPKa were generated in three versions containing either arginine, ADMA, or SDMA at position 2: YRELRLLK (SEQ ID NO: 834), YRADMAELRLLK (SEQ ID NO: 835), and YRSDMAELRLLK (SEQ ID NO: 836). Each peptide was sequenced using three recognizers—PS610 (F, Y, W), PS961 (L, I, V), and PS621 (R)—and data were analyzed to identify RSs, determine the mean PD of each RS, and characterize the kinetic signature of each peptide.
In this example, sequencing reactions were performed using PS621 (R), PS610 (FYW), and PS961 (LIV) recognizers for 9 pairs of peptides. Each pair comprised one peptide comprising an unmodified arginine residue followed by a non-arginine amino acid (referred to as an R-X peptide) and one peptide having an identical sequence except that the unmodified arginine was modified to be ADMA (referred to as an ADMA-X peptide).

A further assay relates to PS1223. Kind of assay: Dynamic single-molecule sequencing, recognition by PS1223. The class given is binding. The protocol:
(§3) Sequencing reactions using the recognizers PS610 (FYW), PS1220 (R), and PS1223 (LIV) were performed separately for the QP706 and QP1073 peptide fragments. Each recognizer was labeled with a unique dye and/or unique number of dyes. A scatter plot of bin ratio v. pulse duration is shown for the QP706 peptide fragment in FIG. 18A and for the QP1073 peptide fragment in FIG. 18B. In the plot of FIG. 18A, three clusters corresponding to FLE, LEQ, and RFL segments are visible. […] In the plot of FIG. 18B, two clusters corresponding to FLE and LEQ segments are visible, but there is no cluster corresponding to RFL.
In this example, sequencing reactions were conducted for 4 pairs of unmodified and citrullinated peptides: QP1028 & QP1029, QP1030 & QP1031, QP1032 & QP1033, and QP707 & QP789. […] For the QP1028 & QP1029 and QP1030 & QP1031 pairs, sequencing reactions were conducted using the PS610 (FYW) recognizer. For the QP1032 & QP1033 and QP707 & QP789 pairs, sequencing reactions were conducted using the PS1223 (LIV) recognizer.

Another assay concerns PS610. Kind of assay: Dynamic single-molecule sequencing, recognition by PS610. The format is binding, A. tumefaciens. Particulars: for RS mean PD, recognition of N-terminal phenylalanine: lysine or acetylated lysine downstream. The protocol:
as §1, with “The laser was then blocked via an integrated software-controlled shutter, peptide complex was added to a final concentration of 1-10 nM and mixed thoroughly, and the chip was incubated for 15 min.” left out, “For NAA recognition-only assays, after peptide loading, labeled recognizer was added to a final concentration of 50 nM PS610, 100 nM PS691, or 250 nM PS961 (as indicated according to the experiment), and data was recorded for 10 hours. For dynamic sequencing assays, after peptide loading, a mixture of labeled recognizers was added to obtain final concentrations of 50 nM PS610, 100 nM PS691, and 250 nM PS961. Data was recorded for 15 min.” left out
as §2
Initial regions are determined by performing a sliding window calculation of pulse rate along the time dimension of a series of pulses. Regions with a mean pulse rate >1 pulse/min are then subdivided according to a greedy bisection approach. Here, the pulses on the left and right of each potential split are assessed for statistically significant deviation in any of four separate pulse properties—intensity, bin ratio, pulse duration, and interpulse duration—using a Mann-Whitney U Test. To define RSs, the split point with the lowest p-value for any of the four properties is used to sub-divide the region and the process continues until no regions remain with a candidate split point with p-value <10^−5 in any comparison. In this manner, transitions from one RS to the next in a region of continuous pulsing are determined a priori on the basis of changes in fluorescence properties of pulsing kinetics.

A further assay addresses T2, PS1165.
T2 construct: PS1165; 511
In words: Dynamic single-molecule sequencing, recognition by PS1165. The class given is binding. As to conditions: lysine or acetylated lysine downstream. The protocol:
Sequencing reactions using the recognizers PS691 (R), PS610 (FYW), PS961 (LIV), and PS1165 (A) were performed separately for the peptides RLYFKAYPDDD (SEQ ID NO: 825) and RLK{acetyl}FIAYPDDD (SEQ ID NO: 826) (where K{acetyl} is an acetylated lysine). Recognition of the N-terminal phenylalanine and alanine residues preceding lysine or acetyl-lysine by PS610 and PS1165, respectively, was observed, with distinct pulse durations depending on whether the peptide contained lysine (F=1.4 s, A=1.3 s; FIG. 16A) or acetylated lysine (F=1.8 s, A=2.2 s; FIG. 16B). Recognition of N-terminal phenylalanine occurred with RS mean PD of 1.4 s for FAK and 1.8 s for FAK{acetyl }. Recognition of N-terminal alanine occurred with RS mean PD of 1.3 s for AK and 2.2 s for AK{acetyl}.

Another assay has as its system PS691. Particulars: tyrosine or phosphotyrosine at position 3.
For another assay, the target named is T3, PS1220 (Kluyveromyces lactis, UniProt O60014, E169T/E174T/I162E/N105S/N176F/R116K/S153T/V146L).
T3 construct: PS1220; 566
T3 sequence (O60014 with tags, fused parts or gaps N105S/R116K/V146L/S153T/I162E/E169T/E174T/N176F): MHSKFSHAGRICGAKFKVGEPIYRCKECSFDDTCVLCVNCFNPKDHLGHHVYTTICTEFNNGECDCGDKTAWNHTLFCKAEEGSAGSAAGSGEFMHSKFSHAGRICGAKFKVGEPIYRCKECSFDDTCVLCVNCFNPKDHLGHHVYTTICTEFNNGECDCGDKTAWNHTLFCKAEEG
In words: Dynamic single-molecule sequencing, recognition by PS1220. The class given is binding. As to conditions: vimentin peptide fragments. The protocol: as §3
Results from additional sequencing reactions performed using the recognizers PS610 (FYW), PS1220 (R), and PS1223 (LIV) and the QP706 and QP1073 peptide fragments are shown in FIGS. 19A-19D and 20A-20D. Traces from the QP706 reactions are shown in FIGS. 19A-19B, and corresponding scatter plots of intensity v. bin ratio are shown in FIGS. 19C-19D. […] Traces from the QP1073 reactions are shown in FIGS. 20A-20B, and the corresponding scatter plots of intensity v. bin ratio are shown in FIGS. 20C-20D.

Entries after “also recorded” stand apart in the source; their conditions may differ. Square brackets hold non-standard residues; d marks the D form. Ends that are not written are not given here. Cit = NC(=O)NCCC[C@H](N)C(=O)O

PS1223, sequence (as listed by the source): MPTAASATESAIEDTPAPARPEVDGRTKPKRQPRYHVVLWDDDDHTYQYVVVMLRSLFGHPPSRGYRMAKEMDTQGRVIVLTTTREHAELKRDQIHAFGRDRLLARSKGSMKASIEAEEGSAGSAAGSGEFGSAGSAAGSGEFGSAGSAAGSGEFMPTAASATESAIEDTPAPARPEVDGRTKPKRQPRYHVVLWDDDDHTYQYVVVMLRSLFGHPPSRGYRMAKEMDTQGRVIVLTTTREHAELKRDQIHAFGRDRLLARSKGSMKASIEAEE
PS961, sequence (as listed by the source): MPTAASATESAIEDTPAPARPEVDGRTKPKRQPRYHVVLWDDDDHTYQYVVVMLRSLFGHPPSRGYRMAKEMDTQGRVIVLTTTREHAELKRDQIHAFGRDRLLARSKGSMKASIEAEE
T1 sequence (O60014 other isoform, or with tags, fused parts or gaps N105S/R116K/V146T/S153T/E174T/N176F): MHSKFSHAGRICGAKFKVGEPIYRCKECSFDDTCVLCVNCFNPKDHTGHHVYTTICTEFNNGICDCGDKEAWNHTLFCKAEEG
T2 sequence (Q13490 with tags, fused parts or gaps): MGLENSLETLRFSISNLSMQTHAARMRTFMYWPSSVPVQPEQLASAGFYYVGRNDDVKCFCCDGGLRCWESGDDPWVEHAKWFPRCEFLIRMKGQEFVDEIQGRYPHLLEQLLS
Experimental for PS691: The semiconductor chip was placed in the sequencing device and a chip check was performed to test electronic circuit function and to optimize laser coupling alignment. The chip was then removed from the device socket and the chip was washed twice with 50 μL of 70% isopropanol, followed by four washes with 30 μL of wash buffer (50 mM MOPS pH 8.0, 60 mM potassium acetate, 50 mM glucose, 20 mM magnesium acetate, and surfactant mix) through a flow cell attached to the chip. A second chip check was then performed. […] The laser was unblocked and the occupancy percentage (target 10-30%, Poisson distributed) was recorded by acquiring a photobleaching signal from a fluorophore attached to the peptide complex during 5 min of laser illumination. For NAA recognition-only assays, after peptide loading, labeled recognizer was added to a final concentration of 50 nM PS610, 100 nM PS691, or 250 nM PS961 (as indicated according to the experiment), and data was recorded for 10 hours. […] Data was recorded for 15 min. […]
The measured signal on-chip comprises various noise components, the most dominant one being due to fluorescent emissions from diffusing recognizers in the reaction chamber. […] This provides robustness against drift in the signal intensity together with a feedback control loop that maintains a stable optical coupling of the laser into the chip based on any such detected drift. […]

Take LRLAFAYPDDDK [QP707]: in the assay on PS961 (arginine or citrulline at position 2), the “Median PD of recognition of N-terminal leucine by PS961” value stood at 0.43 s. In addition, in the assay with PS621 (RS duration), the “RS R-X” value was determined as 17.3 min. Further, the “PW of R-X” value in the assay with PS621 is 0.47 s. Moreover, the “Pulse Width” value with PS1223 (recognizer PS1223, recognition of the N-terminal amino acid) turned out to be 0.42 s.
Regarding “RLK{acetyl}FIAYPDDD (RLK(Ac)FIAYPDDD-NH2; also: C-terminal azidolysine (general statement for all synthetic peptides)) [FAK{acetyl }, peptide containing acetylated lysine]”, the “RS mean PD, recognition of N-terminal phenylalanine” value in the assay with PS610 was determined as 1.8 s. For the same substance, in the assay with PS1165, the “RS mean PD, recognition of N-terminal alanine” value is recorded as 2.2 s.
As to RLYFIAYPDDD, in the assay with PS610, the “Recognition of Y or pY by PS610 between L and F” value is “Y recognition”. Besides, the “RS mean PD, recognition of N-terminal leucine” value in the assay on PS961 was 2.45 s. The “RS mean PD, recognition of N-terminal arginine” value in the assay on PS691 amounted to 0.9 s.
For the substance “RLYFKAYPDDD (FAK) [peptide containing lysine]”, in the assay with PS610, the “RS mean PD, recognition of N-terminal phenylalanine” value is given as 1.4 s. Also, the “RS mean PD, recognition of N-terminal alanine” value with PS1165 is on record as 1.3 s.
On to RLpYFIAYPDDD, for which the “Recognition of Y or pY by PS610 between L and F” value in the assay on PS610 was “not recognized”. Moreover, the “RS mean PD, recognition of N-terminal leucine” value in the assay on PS961 is given as 3.4 s. For the same substance, the “RS mean PD, recognition of N-terminal arginine” value in the assay on PS691 is reported as 0.45 s.
On to “VCitFLEQQNK (V[Cit]FLEQQNK) [QP1073, citrullinated peptide fragment of vimentin]”, for which, in the assay with PS1220, the “Recognition of arginine / citrulline residue by PS1220” value is “did not recognize; also recorded: does not recognize”.
Turning to “VRFLEQQNK [QP706, peptide fragment of vimentin]”, the “Recognition of phenylalanine (F) residue by PS610” value in the assay on PS610 (vimentin peptide fragments) is “recognized; also recorded: recognition”. For the same substance, the “Recognition of arginine / citrulline residue by PS1220” value in the assay with PS1220 is reported as “recognized; also recorded: recognition”. Further, the “Recognition of leucine (L) residue by PS1223” value in the assay with PS1223 (vimentin peptide fragments) is listed as “recognized; also recorded: recognition”.
